Assay results from US9284325B2, “Spectinamides as anti-tuberculosis agents” (UNIVERSITY OF TENNESSEE RESEARCH FOUNDATION, priority 2009, dated 2016).
Counter-ions that a name gives are not always drawn.

Tests used:
[1] = system: Proteus mirabilis ATCC 25933; test: MIC determination by microbroth dilution; type: cell-based; settings: ATCC25933
[2] = system: M. tuberculosis H37Rv; test: MIC determination by microbroth dilution, anti-tuberculosis activity; type: cell-based, Mycobacterium tuberculosis; settings: Mycobacterium tuberculosis, H37RV, 168 h; read-out: MIC
[3] = system: Proteus vulgaris ATCC 33420; test: MIC determination by microbroth dilution; type: cell-based; settings: ATCC33420
[4] = system: B. anthracis Sterne 34F2; test: microbe, parasite or virus in culture; type: cell-based, Bacillus anthracis; settings: Bacillus anthracis, STERNE34F2, read-out: MIC B. anthracis 34F2
[5] = system: E. coli K12 ΔtolC; test: microbe, parasite or virus in culture; type: cell-based; settings: Escherichia coli, read-out: MIC E. coli K12 ΔtolC
[6] = system: E. coli K12; test: MIC determination by microbroth dilution; type: cell-based, Escherichia coli; settings: Escherichia coli, K12
[7] = system: Strep. pyogenes ATCC 700294; test: MIC determination by microbroth dilution; type: cell-based, Streptococcus pyogenes; settings: Streptococcus pyogenes, ATCC700294, read-out: MIC S. pyogenes
[8] = system: E. faecalis ATCC 33186; test: MIC determination by microbroth dilution; type: cell-based, Enterococcus faecalis; settings: Enterococcus faecalis, ATCC33186
[9] = system: S. aureus 8325 or strain ATCC 29213; test: MIC determination by microbroth dilution; type: cell-based, Staphylococcus aureus; settings: Staphylococcus aureus, ATCC29213; S. aureus 8325 or strain ATCC 29213 (for 1471-1544)
[10] = system: Strenotrophomonas maltophilia ATCC 13637; test: MIC determination by microbroth dilution; type: cell-based
[11] = system: Acinetobacter baumannii ATCC 19606; test: MIC determination by microbroth dilution; type: cell-based; settings: ATCC19606
[12] = system: Burkholderia cepacia ATCC 25416; test: MIC determination by microbroth dilution; type: cell-based; settings: ATCC25416, read-out: MIC B. cepcia
[13] = system: Klebsiella pneumoniae ATCC 33495; test: MIC determination by microbroth dilution; type: cell-based; settings: ATCC33495
[14] = system: P. aeruginosa PAO1; test: MIC determination by microbroth dilution; type: cell-based, Pseudomonas aeruginosa; settings: Pseudomonas aeruginosa
[15] = system: Strep. pneumoniae DAW27 or strain R6; test: MIC determination by microbroth dilution; type: cell-based, Streptococcus pneumoniae; settings: Streptococcus pneumoniae; Strep. pneumoniae DAW27 or strain R6 (for 1443-1544); read-out: MIC S. pneumoniae

## CN[C@@H]1[C@H](O)[C@H](NC)C2O[C@]3(O)C(OC2[C@H]1O)O[C@H](C)C[C@H]3NC(=O)Cc1csc(Nc2ccc(OC(F)(F)F)cc2)n1 (stereo partly drawn) [Compound 1540, 3′-Dihydro-3′-deoxy-4(R)-(2-((4-(trifluoromethoxy)phenyl)amino)-thiazol-4-yl)acetylamino spectinomycin tribromide]
[1]
  MIC: > 200 µg/mL
[2]
  MIC: 6.25 µg/mL
[3]
  MIC: > 200 µg/mL
[4]
  MIC: > 200 µg/mL
[5]
  MIC: 12.5 µg/mL
[6]
  MIC: > 200 µg/mL
[7]
  MIC: 6.25 µg/mL
[8]
  MIC: 25 µg/mL
[9]
  MIC: 100 µg/mL
[10]
  MIC: 200 µg/mL
[11]
  MIC: > 200 µg/mL
[12]
  MIC: > 200 µg/mL
[13]
  MIC: > 200 µg/mL
[14]
  MIC: 25 µg/mL
[15]
  MIC: 6.25 µg/mL

## CN[C@@H]1[C@H](O)[C@H](NC)C2O[C@]3(O)C(OC2[C@@H]1O)O[C@H](C)C[C@H]3NC(=O)Cc1nc2ccccc2s1 (stereo partly drawn) [Compound 1491, 3′-Dihydro-3′-deoxy-4(R)-(benzothiazol-2-yl)acetylamino spectinomycin trihydrobromide]
[1]
  MIC: > 200 µg/mL
[2]
  MIC: 1.6 µg/mL
[3]
  MIC: > 200 µg/mL
[4]
  MIC: > 200 µg/mL
[5]
  MIC: 12.5 µg/mL
[6]
  MIC: 200 µg/mL
[7]
  MIC: 12.5 µg/mL
[8]
  MIC: 25 µg/mL
[9]
  MIC: 100 µg/mL
[10]
  MIC: > 200 µg/mL
[11]
  MIC: > 200 µg/mL
[12]
  MIC: > 200 µg/mL
[13]
  MIC: > 200 µg/mL
[14]
  MIC: > 200 µg/mL
[15]
  MIC: 6.25 µg/mL

## CN[C@@H]1[C@H](O)[C@H](NC)C2O[C@]3(O)C(OC2[C@H]1O)O[C@H](C)C[C@H]3NC(=O)Cc1cc(Cl)ccn1 (stereo partly drawn) [Compound 1544, 3′-Dihydro-3′-deoxy-4(R)-(4-chloropyridin-2-yl)acetylamino spec-tinomycin tribromide]
[1]
  MIC: > 200 µg/mL
[2]
  MIC: 0.8 µg/mL
[3]
  MIC: > 200 µg/mL
[4]
  MIC: > 200 µg/mL
[5]
  MIC: 12.5 µg/mL
[6]
  MIC: > 200 µg/mL
[7]
  MIC: 12.5 µg/mL
[8]
  MIC: 100 µg/mL
[9]
  MIC: 50 µg/mL
[10]
  MIC: > 200 µg/mL
[11]
  MIC: > 200 µg/mL
[12]
  MIC: > 200 µg/mL
[13]
  MIC: > 200 µg/mL
[14]
  MIC: > 200 µg/mL
[15]
  MIC: 6.25 µg/mL

## CN[C@@H]1[C@H](O)[C@H](NC)C2O[C@]3(O)C(OC2[C@H]1O)O[C@H](C)C[C@H]3NC(=O)Cc1cccc(C)c1 (stereo partly drawn) [Compound 1412, 3′-Dihydro-3′-deoxy-4(R)-m-tolylacetylamino spectinomycin Dihydrochloride]
[1]
  MIC: > 200 µg/mL
[2]
  MIC: 25 µg/mL
[3]
  MIC: > 200 µg/mL
[4]
  MIC: 100 µg/mL
[5]
  MIC: 200 µg/mL
[6]
  MIC: > 200 µg/mL
[7]
  MIC: 25 µg/mL
[8]
  MIC: 200 µg/mL
[9]
  MIC: 50 µg/mL
[10]
  MIC: > 200 µg/mL
[11]
  MIC: > 200 µg/mL
[12]
  MIC: > 200 µg/mL
[13]
  MIC: > 200 µg/mL
[14]
  MIC: 100 µg/mL
[15]
  MIC: 25 µg/mL

## CN[C@@H]1[C@H](O)[C@H](NC)C2O[C@]3(O)C(OC2[C@H]1O)O[C@H](C)C[C@H]3NCCc1ccccc1 (stereo partly drawn) [Compound 1450, 3′-Dihydro-3′-deoxy-4(R)-2-phenylethylamino spectinomycin Trihydrochloride]
[2]
  MIC: 200 µg/mL

## CC[C@H](C)[C@H](N)C(=O)N[C@@H]1C[C@@H](C)OC2OC3C(O[C@]21O)[C@@H](NC)[C@@H](O)[C@@H](NC)[C@@H]3O (stereo partly drawn) [Compound 1485, 3′-Dihydro-3′-deoxy-4(R)-[(2S,3S)-2-amino,3-methyl]pentanoylamino spectinomycin Trihydrochloride]
[1]
  MIC: > 200 µg/mL
[2]
  MIC: 200 µg/mL
[3]
  MIC: > 200 µg/mL
[4]
  MIC: > 200 µg/mL
[5]
  MIC: > 200 µg/mL
[7]
  MIC: 25 µg/mL
[8]
  MIC: > 200 µg/mL
[9]
  MIC: > 200 µg/mL
[10]
  MIC: > 200 µg/mL
[11]
  MIC: > 200 µg/mL
[12]
  MIC: > 200 µg/mL
[13]
  MIC: > 200 µg/mL
[14]
  MIC: > 200 µg/mL
[15]
  MIC: 25 µg/mL

## CN[C@@H]1[C@H](O)[C@H](NC)C2O[C@]3(O)C(OC2[C@H]1O)O[C@H](C)C[C@H]3NC(=O)[C@@H](N)C(C)C (stereo partly drawn) [Compound 1486, 3′-Dihydro-3′-deoxy-4(R)-[2(S)-amino,3-methyl]butanoylamino spectinomycin Trihydrochloride]
[1]
  MIC: > 200 µg/mL
[2]
  MIC: 200 µg/mL
[3]
  MIC: > 200 µg/mL
[4]
  MIC: > 200 µg/mL
[5]
  MIC: > 200 µg/mL
[7]
  MIC: 50 µg/mL
[8]
  MIC: > 200 µg/mL
[9]
  MIC: > 200 µg/mL
[10]
  MIC: > 200 µg/mL
[11]
  MIC: > 200 µg/mL
[12]
  MIC: > 200 µg/mL
[13]
  MIC: > 200 µg/mL
[14]
  MIC: > 200 µg/mL
[15]
  MIC: > 200 µg/mL
